Structures are written as SMILES.

The assay has as its system tumor cells from patient tumor samples. In words: Extreme Drug Resistance (EDR) assay, tritiated thymidine incorporation in soft agarose culture. In kind it is cell-based, human. The following applies: supratoxic dose 33 μM, positive (background) control group. In general terms: Incorporation of labelled thymidine or its analogues reports DNA synthesis.

Procedure: In the practice of this assay, tumor cells are taken from a cancer biopsy and exposed to cancer chemotherapeutics in culture. During the culture period, radioactive thymidine is added, which is incorporated into the DNA of growing and dividing cancer cells (which are thus resistant to the cytostatic or cytotoxic effects of the cancer chemotherapeutic). Tritiated thymidine is not incorporated into cells that are sensitive to the drug and reduce or suspend growth and division in response to the drug. […] By measuring the amount of radioactivity in a sample, the assay determines the relative resistance of an individual patient's cancer cells to a number of different chemotherapies. […]
The EDR assay is an agarose-based culture system, using tritiated thymidine incorporation to define in vitro drug response. […] The radioactivity trapped on the filters was counted with an LS-6500 scintillation Counter (Beckman, Fullerton, Calif.). […] Detectable radioactivity for this group was considered non-specific background related to debris trapping of tritiated thymidine on the filter. After subtracting background control values, percent control inhibition (PCI) of proliferation was determined by comparing thymidine incorporation by the treatment group with incorporation by the negative control group: PCI=100%×[1−(CPM treatment group/CPM control group)]. […]

`N.N.[Cl][Pt][Cl]` [Cisplatin] came in with a cell death of 100%.

The record behind these values is patent US20060160114A1, “Reagents and methods for predicting drug resistance” (Oncotech, Inc., priority 2004, published 2006).
